Measured values as given in US8409595B2, “Method for decreasing sebum production” (Medicis Pharmaceutical Corporation, priority 2003, dated 2013).

Columns and labels:
[1] = system: sebum secretion; conditions: in vivo; cited from earlier work
[2] = system: sebaceous glands of Syrian hamster ears; assay: Syrian hamster ear model of sebum secretion, HPLC of cholesterol ester and wax ester; format: in vivo; conditions: topical 1 w/v %, 4 weeks; for % Reduction in CE, change vs. relevant vehicle control: cholesterol ester; for % Reduction in CE, change vs. relevant vehicle control / % Reduction in WE, change vs. relevant vehicle control: twice daily, five days a week, right ear, negative = increase; for Sum CE + WE, change vs. relevant vehicle control: summation of % reduction in CE and in WE; for % Reduction in WE, change vs. relevant vehicle control: wax ester
Experimental: Luderschmidt et al describes an animal model for testing whether compounds are capable of modulating sebum secretion. Arch. Derm. Res. 258, 185-191 (1977). This model uses Syrian hamsters, whose ears contain sebaceous glands. Compounds can be administered to these animals to determine if a test agent is capable of modulating sebum production
Testing for sebum inhibition was carried out in the following manner. Male Syrian hamsters aged 9 to 10 weeks were introduced into the laboratory environment and acclimated for 2 weeks prior to use in the study. Each group consisted of 5 animals and were run in parallel with vehicle and positive controls. Prior to administration, 10 mg of each compound was dissolved in 1 mL of Universal solvent (ethanol/propylene glycol (70/30% v/v) to achieve a final concentration of 1 w/v %.
Animals were dosed topically twice daily, five days a week, for 4 weeks. Each dose consisted of 25 micro liters of vehicle control or drug. The dose was applied to the ventral surfaces of both the right and left ears. All animals were sacrificed approximately 18-24 hours after the final dose. The right ears were collected from each animal and used for sebum analysis.
The ears were prepped for HPLC analysis in the following manner. One 8 mm distal biopsy punch was taken, just above the anatomical “V” mark in the ear to normalize the sample area. The punch was pulled apart. The ventral biopsy surface (the area where the topical dose was directly applied to the sebaceous glands) was retained for testing and the dorsal surface of the biopsy punch was discarded.
Tissue samples were blown with N2 gas and stored at −80° C. under nitrogen until HPLC analysis. In addition to ear samples, an aliquot of each drug and vehicle (at least 250 ul) was also stored at −80° C. for inclusion in the HPLC analysis.
HPLC analysis was carried out on an extract of the tissue sample. Tissue samples were contacted with 3 ml of solvent (a 4:1 admixture of 2,2,4-trimethylpentane and isopropyl alcohol). The mixture was shaken for 15 minutes and stored overnight at room temperature, protected from light. The next morning 1 milliliter of water was added to the sample and shaken for 15 minutes. The sample was then centrifuged at approximately 1500 rpm for 15 minutes. Two ml of the organic phase (top layer) was transferred to a glass vial, dried at 37° C., under nitrogen, for approximately 1 hour, and then lyophilized for approximately 48 hours. The samples were then removed from the lyophilizer and each vial was reconstituted with 600 μl of solvent A (trimethylpentane/tetrahydrofuran (99:1). The samples were then recapped and vortexed for 5 minutes.
200 μl of each sample was then transferred to a pre-labeled 200 μl HPLC vial with 200 μL glass inserts. The HPLC vials were placed in the autosampler tray for the Agilent 1100 series HPLC unit. The Agilent 1100 HPLC system consisted of a thermostated autosampler, a quarternary pump, a column heater, and an A/D interface module. All components were controlled by Agilent ChemStation software. A Waters Spherisorb S3W 4.6×100 mm analytical column was maintained at 30° C. by the Agilent column heater unit. The HPLC autosampler was programmed to maintain the sample temperature at 20° C. throughout the run.
10 uL of each sample was injected in triplicate into the column. Two solvents were used for the solvent gradient. Solvent A was an admixture of trimethylpentane and tetrahydrofuran (99:1). Solvent B was ethylacetate. The gradient utilized is described in the table below: […]
The Sedex 75 Evaporative Light Scattering Detector (ELSD) was operated at 45° C. with a gain of 5, and N2 pressure maintained at 3.1 bar. Analog signal obtained by the instrument was sent to the Agilent A/D interface module where it was converted to a digital output. The conversion was based on a 10000 mAU/volt set point and the data rate was set at 10 Hz (0.03 min). […]

| SMILES | reduction of sebum secretion [1] | % Reduction in CE, change vs. relevant vehicle control [2] | Sum CE + WE, change vs. relevant vehicle control [2] | % Reduction in WE, change vs. relevant vehicle control [2] |
| --- | --- | --- | --- | --- |
| CC1=C(/C=C/C(C)=C/C=C/C(C)=C\C(=O)O)C(C)(C)CCC1 [Accutane, isotretinoin] | up to 90% | – | – | – |
| CCOC(=O)CN(C(=O)CC(=O)Nc1c(C(C)C)cccc1C(C)C)c1ccccc1 [Compound 7] | – | −67% | −151% | −84% |
| CCCCCCCN(CCCCCSc1nc(-c2ccccc2)c(-c2ccccc2)[nH]1)C(=O)Nc1ccc(F)cc1F [Compound 22] | – | 20% | 24% | 4% |
| CC(C)c1cccc(C(C)C)c1NC(=O)NCC(C)c1ccccc1 (stereo not shown) [Compound 27] | – | −17% | −40% | −23% |
